Test results published in patent US9505735B2, “Compounds for treating infectious diseases” (Whitehead Institute for Biomedical Research, priority 2012, dated 2016).
Where “and” joins values, the source holds several entries; their conditions need not be identical. Equal values may be shown once. Read-outs that look alike come from different tables or passages of the source.

Key:
[1] = tested on: Wildtype S. cerevisiae BY4741; assay: Antifungal susceptibility testing, wildtype yeast; format: cell-based; details: Saccharomyces cerevisiae, read-out: EC50 Avg
Description: Archives of all strains were maintained in 25% glycerol at −80° C. Standard S. cerevisiae lab strains W303, BY4741, BY4742 and BY4743 were used for experiments. The C. albicans wild type strain in FIG. 1 was CaI4, a standard laboratory strain (Fonzi, et al. (1993) Genetics 134, 717-728). The C. albicans fluconazole-resistant strains CaCi-2, CaCi-8 and CaCi17 were generously provided by Ted White and originally collected by Spencer Redding and colleagues (White, (1997) Antimicrob Agents Chemother 41, 1488-1494; White, (1997) Antimicrob Agents Chemother 41, 1482-1487; White, et al. (1997) Oral Dis 3 Suppl 1, S102-109). The sequenced C. albicans wild type strain, Sc5314 (Gillum, et al. (1984) Mol Gen Genet 198, 179-182) used in P-glucan experiments was a gift from John Perfect's lab. CaAmphR, an amphotericin B-resistant strain is from ATCC (#20095). Caspofungin-resistant strain Cfr1 was derived by plating Sc5314 on caspofungin plates and isolating resistant colonies. A. terreus was purchased from ATCC (MYA-3633). The C. glabrata strain CgL5c was obtained from John Bennett's lab. The YKO heterozygous diploid strain collection is from Open Biosystems and was generated in BY4743. Haploid deletion strains were from the Yeast Knock-out Deletion Collection and purchased from Invitrogen. The over-expression library was made by transforming BY4741 with the Harvard Institute of Proteomics Flexgene library.
(§1) Sensitivity to gepinacin was determined in 96-well, flat bottom microtiter plates using a modification of the NCCLS broth microdilution protocol CLS M27-A3 and RPMI as culture medium. Fungi were inoculated at ˜10^3 cells per ml and incubated for 48 hours at 37° C. after which plates were sealed, shaken and the optical density read at 600 nm (OD600) on a Tecan Safire 2 plate reader. All samples were run in duplicate or triplicate and assays were repeated at least once. Results are expressed as fraction of growth in the absence of compound and the mean and standard deviation are plotted. For the mold A. terreus, inoculum was 10^4 cells per ml and plates were incubated at 35° C. for 48 hours in the dark. Plates were then visually scored as specified by CLSI document M38-A2 to determine the MIC50 and MIC80.
(§2) The following gepinacin analogs were tested for activity against Gwt1. Gepinacin, M3, CM2, CM4, CM6, CM7, CM8, and 857621-56-8 were available commercially. The compounds were tested using the “Antifungal Susceptibility Testing” protocol described above. Fungi tested are described in the “Fungal Strains” section above.

[2] = molecular target: T1, Gwt1 (Saccharomyces cerevisiae, UniProt P47026); assay: Antifungal susceptibility testing, screening strains with plasmid-borne GWT1 (low or high copy); format: cell-based, S. cerevisiae
T1 construct: Wildtype S. cerevisiae BY4741; endogenous in cells; host or cells: S. cerevisiae BY4741 (wild type)
T1 sequence (P47026 1-490): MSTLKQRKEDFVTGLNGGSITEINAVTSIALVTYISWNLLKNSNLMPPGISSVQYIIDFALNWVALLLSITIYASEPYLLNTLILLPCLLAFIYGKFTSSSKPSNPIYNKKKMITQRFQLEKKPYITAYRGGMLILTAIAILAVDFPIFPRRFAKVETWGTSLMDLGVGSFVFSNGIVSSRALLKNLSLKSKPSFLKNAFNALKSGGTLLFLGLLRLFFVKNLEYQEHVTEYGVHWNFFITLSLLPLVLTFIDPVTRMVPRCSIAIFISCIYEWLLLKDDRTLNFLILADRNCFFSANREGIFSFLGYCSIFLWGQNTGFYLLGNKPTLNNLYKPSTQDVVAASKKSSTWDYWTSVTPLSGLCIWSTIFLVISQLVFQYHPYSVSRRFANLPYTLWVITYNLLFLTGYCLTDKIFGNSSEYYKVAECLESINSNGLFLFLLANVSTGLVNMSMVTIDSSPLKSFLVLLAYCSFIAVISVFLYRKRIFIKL
Description: as §1
Because GWT1 deletion is lethal in S. cerevisiae strain BY4741, a haploid shuttle strain was constructed in which the genomic copy of GWT1 was deleted and replaced by GWT1 on a plasmid that also encoded the URA3 gene and a G418-resistance gene. To construct this shuttle strain a gwt1Δ/GWT1 heterozygous deletion mutant was transformed with pAGGPD416-GWT1, sporulated and dissected. A colony was selected that grew on both SD-URA and G418-containing plates. PCR with the deletion specific primers (http://wwwsequence.stanford.edu/group/yeast_deletion_project/deletions3.html) was performed to confirm the GWT1 deletion. To change the source of GWT, this shuttle strain was transformed with plasmids containing GWT1 (as a control) or PIG-W and the LEU2 auxotrophy gene followed by selection for growth on SD-LEU plates. Plasmids were constructed by conventional Gateway technology using a GWT1 encoding entry vector and either pAG415GPDccdB or pAG425GPDccdB as the destination vectors. Positive colonies were selected and grown on 5-fluoroorotic acid (5-FOA)-containing plates to promote loss of the pAGGPD416-GWT1 plasmid. The colonies from this plate were then tested for return of uridine auxotrophy to confirm pAGGPD416-GWT1 loss. The PIG-W expression vector was constructed by recombination in yeast as follows. The pAG415GPDccdB vector was cut with Xho1 and Xba1 and the larger piece was gel and column purified. The coding sequence of PIG-W was PCR amplified from the entry clone so that it would have ends facilitating recombination with the cut vector. The shuttle strain was then transformed with these two DNA fragments and plated on SD-LEU plates to select for recombinants. PIG-W plasmid was isolated from the final strain and sequence verified.
as §2
An S. cerevesiae strain was generated in which the endogenous Gwt1 gene was deleted. Plasmids (either high copy or low copy) with either S. cerevesiae or human Gwt1 were introduced to produce strains bearing such plasmids expressing either S. cerevesiae or human Gwt1 from a constitutive promoter. Yeast strains were cultured in liquid media in the presence of indicated compounds. Shown in FIGS. 22A-D show the effect of the indicated compounds on growth (assessed by OD600) and viability (assessed using Bactiter Glo) of the yeast strain with high copy or low copy plasmid containing S. cerevesiae Gwt1. The compounds had no effect on strains with the human Gwt1, thus showing the compounds' sensitivity for the fungal (yeast) Gwt1 gene.

[3] = molecular target: T2, PIG-W (Homo sapiens, UniProt Q7Z7B1); assay: Growth of S. cerevisiae strain whose GWT1 is replaced by the human gene PIG-W; format: cell-based
T2 construct: expressed in transfected cells; host or cells: S. cerevisiae BY4741-derived gwt1 deletion shuttle strain carrying a pAG415GPD-based PIG-W plasmid
T2 sequence (Q7Z7B1 1-504): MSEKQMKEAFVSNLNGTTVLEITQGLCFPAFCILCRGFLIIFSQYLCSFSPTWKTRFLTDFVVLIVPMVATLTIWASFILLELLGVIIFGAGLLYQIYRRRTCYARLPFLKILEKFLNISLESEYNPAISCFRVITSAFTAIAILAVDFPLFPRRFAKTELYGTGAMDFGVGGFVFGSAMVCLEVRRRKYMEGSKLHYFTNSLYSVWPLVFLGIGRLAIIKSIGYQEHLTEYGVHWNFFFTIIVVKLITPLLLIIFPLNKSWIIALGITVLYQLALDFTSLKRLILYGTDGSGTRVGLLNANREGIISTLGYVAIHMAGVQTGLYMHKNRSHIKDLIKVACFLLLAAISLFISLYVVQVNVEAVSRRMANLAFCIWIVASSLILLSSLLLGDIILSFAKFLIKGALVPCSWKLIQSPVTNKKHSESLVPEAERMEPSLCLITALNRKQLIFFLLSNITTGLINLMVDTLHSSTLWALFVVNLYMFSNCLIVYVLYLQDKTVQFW
Description: as §1
Because GWT1 deletion is lethal in S. cerevisiae strain BY4741, a haploid shuttle strain was constructed in which the genomic copy of GWT1 was deleted and replaced by GWT1 on a plasmid that also encoded the URA3 gene and a G418-resistance gene. […]
An S. cerevesiae strain was generated in which the endogenous Gwt1 gene was deleted. […] Shown in FIGS. 22A-D show the effect of the indicated compounds on growth (assessed by OD600) and viability (assessed using Bactiter Glo) of the yeast strain with high copy or low copy plasmid containing S. cerevesiae Gwt1. […]

[4] = tested on: unfolded protein response; assay: Unfolded protein response GFP reporter (UPRE-GFP), flow cytometry; format: cell-based, S. cerevisiae; details: 5 hours
Description: Induction of the unfolded protein response in cells carrying a GFP reporter construct was monitored by flow cytometry after exposure to serial dilutions of the indicated compounds for 5 hrs.
The plasmid pRS304-4XUPRE-GFP was linearized and integrated into the TRP1 locus of S. cerevisiae (W303) to construct a reporter strain as previously described (Cox, et al. (1993) Cell 73, 1197-1206; Pollard, et al. (1998) Mol Cell 1, 171-182). Reporter cells were grown to log phase and exposed to compound at 23° C. for 5 hours before analysis. GFP reporter induction was monitored on a Guava EasyCyte Plus cytometer. The average mean channel fluorescence of duplicate samples was determined, and the experiment was performed twice with similar results.

[5] = tested on: S. cerevisiae strains deleted for IRE1 or HAC1; assay: Antifungal susceptibility testing of UPR-deficient strains; format: cell-based; details: 48 hour
Description: (§3) (A) Immunoblots of lysates prepared from S. cerevisiae treated with gepinacin showing GPI-anchor-selective impairment of protein maturation. The unprocessed (u), precursor (p), and mature (m) forms of the reporter proteins are indicated. The identity of the tagged reporter proteins (top of panel) and the antibodies used for their detection (bottom of panel) are also indicated. Treatment conditions are DMSO (0.05%), gepinacin (GPN, 10 μM) or tunicamycin (Tun, 10 μM). The same lysate was used for both blots. […] GFP expression was monitored by flow cytometry. (C) Anti-fungal susceptibility testing of strains deleted for IRE1 (activator of the UPR) or HAC1 (effector of the UPR) showing their increased sensitivity to gepinacin.
Anti-fungal susceptibility testing of strains bearing deletion of IRE1 (activator of the UPR) or HAC1 (effector of the UPR) using either […] (A) or fluconazole (B). Growth was measured by OD600 after 48 hour exposure to serial dilutions of the compounds as indicated. Results are expressed as a fraction of the OD600 measured in the absence of gepinacin. The mean and standard deviation of triplicate determinations are shown.

[6] = tested on: Gas1 and CPY maturation; assay: Protein trafficking analysis (immunoblot of reporter proteins); format: cell-based, S. cerevisiae; details: 10 μM, 1 hour
Description: as §3
HA-tagged GAS1 was expressed in strain BY4741 CPY-GFP (Yeast GFP collection (Huh, et al. (2003) Nature 425, 686-691) under control of its own promoter using plasmid pCM-HA-GAS1. This construct was created as previously reported except in a gateway plasmid backbone (Fujita, et al. (2006) Mol Biol Cell 17, 834-850). To assess effects on trafficking, strains were incubated for 1 hour at 30° C. with test compounds. Total cellular protein (5 μg) was separated by electrophoresis (Invitrogen 8% gels) and transferred to nitrocellulose membranes. Blots were hybridized with antibodies against HA (Covance), GFP (Roche), or CPY (Invitrogen). Sizes for the various post-translationally modified products of Gas1HA2 and CPY have been previously reported (Fujita, et al. (2006) Mol Biol Cell 17, 834-850). CPY-GFP was used to facilitate discrimination of CPY processing steps because GFP is cleaved from CPY in the yeast vacuole. The experiment, however, was also performed with untagged CPY with the same results.

[7] = EC50 High Copy GWT1, Screening strains, high copy GWT1 plasmid
[8] = EC50 Low Copy GWT1, Screening strains, low copy GWT1 plasmid

Molecule	EC50 [2, 7]	EC50 [2, 8] [µM]	activation of the unfolded protein response (GFP reporter) [4]	also measured
CC(C)COc1cccc(OCC(=O)Nc2ccc(F)cc2)c1 [CM2]	3.07 µM	1.16	–	EC50 ([1]; Wildtype S. cerevisiae BY4741): 7.05 µM
CC(C)COc1cccc(OCC(=O)Nc2ccc(N(C)C)cc2)c1 [CM3]	–	–	–	EC50 [1]: 18.2 µM
COc1ccc(NC(=O)COc2cccc(OCCC(C)C)c2)cc1 [CM7]	6.2 µM	1.31	–	EC50 ([1]; Wildtype S. cerevisiae BY4741): 2.65 µM
COc1ccc(NC(=O)COc2cccc(OCC(C)C)c2)cc1 [LW16]	1.17 µM and 1.89 µM and 8.6 µM	–	–	EC50 ([1]; Wildtype S. cerevisiae BY4741): 2.9 µM
COc1ccc(NC(=O)C(C)Oc2cccc(OCc3ccccc3)c2)cc1 (stereo not drawn) [MAZ1844]	–	–	–	activity against Gwt1 [2]: not Gwt1; activity against PigW / in the PIG-W expressing strain [3]: active
COc1ccc(NC(=O)C(C)Oc2cccc(OCC(C)C)c2)cc1 (stereo not drawn) [MAZ1855]	93.1 µM	12.8	–	–
COc1ccc(NC(=O)COc2cccc(OCc3ccccc3)c2)cc1 [MAZ1857]	268 µM	177	–	–
COc1ccc(NC(=O)COc2cccc(Oc3ccccn3)c2)cc1 [MAZ1859]	7.2 µM	4.9	–	–
C[C@@H]1[C@H](O)[C@@H](C)/C=C/C=C/C=C/C=C/C=C/C=C/C=C/[C@H](O[C@@H]2O[C@H](C)[C@@H](O)[C@H](N)[C@@H]2O)C[C@@H]2O[C@](O)(C[C@@H](O)C[C@@H](O)[C@H](O)CC[C@@H](O)C[C@@H](O)CC(=O)O[C@H]1C)C[C@H](O)[C@H]2C(=O)O [amphotericin B]	–	–	not seen	–
CC[C@H](C)C[C@H](C)CCCCCCCCC(=O)N[C@H]1C[C@@H](O)[C@@H](NCCN)NC(=O)[C@@H]2[C@@H](O)CCN2C(=O)[C@H]([C@H](O)CCN)NC(=O)[C@H]([C@H](O)[C@@H](O)c2ccc(O)cc2)NC(=O)[C@@H]2C[C@@H](O)CN2C(=O)[C@H]([C@@H](C)O)NC1=O [caspofungin]	–	–	not seen	–
OC(Cn1cncn1)(Cn1cncn1)c1ccc(F)cc1F [fluconazole, reference compound]	–	–	not seen	change of toxicity by deletion of HAC1 or IRE1 [5]: completely unaffected
tunicamycin [reference compound]	–	–	Strong induction	CPY (not GPI-anchored) processing [6]: alters the processing of both proteins; Gas1 (GPI-anchored) maturation: mature versus precursor form [6]: alters the processing of both proteins
